Measurements taken from ChEMBL document CHEMBL1136213, “2,6-disubstituted pyran-4-one and thiopyran-4-one inhibitors of DNA-Dependent protein kinase (DNA-PK)” (Bioorg Med Chem Lett, 2003).

What was measured:
[1] = biological target: T1, DNA-dependent protein kinase catalytic subunit (Homo sapiens, UniProt P78527); experiment: In vitro inhibition of DNA-dependent protein kinase(DNA-PK) from HeLa (human carcinoma) cells.; type: cell-based
[2] = biological target: T1, DNA-dependent protein kinase catalytic subunit; experiment: Affinity for DNA-dependent protein kinase(DNA-PK) from HeLa cell extract

T1 sequence (P78527 whole entry): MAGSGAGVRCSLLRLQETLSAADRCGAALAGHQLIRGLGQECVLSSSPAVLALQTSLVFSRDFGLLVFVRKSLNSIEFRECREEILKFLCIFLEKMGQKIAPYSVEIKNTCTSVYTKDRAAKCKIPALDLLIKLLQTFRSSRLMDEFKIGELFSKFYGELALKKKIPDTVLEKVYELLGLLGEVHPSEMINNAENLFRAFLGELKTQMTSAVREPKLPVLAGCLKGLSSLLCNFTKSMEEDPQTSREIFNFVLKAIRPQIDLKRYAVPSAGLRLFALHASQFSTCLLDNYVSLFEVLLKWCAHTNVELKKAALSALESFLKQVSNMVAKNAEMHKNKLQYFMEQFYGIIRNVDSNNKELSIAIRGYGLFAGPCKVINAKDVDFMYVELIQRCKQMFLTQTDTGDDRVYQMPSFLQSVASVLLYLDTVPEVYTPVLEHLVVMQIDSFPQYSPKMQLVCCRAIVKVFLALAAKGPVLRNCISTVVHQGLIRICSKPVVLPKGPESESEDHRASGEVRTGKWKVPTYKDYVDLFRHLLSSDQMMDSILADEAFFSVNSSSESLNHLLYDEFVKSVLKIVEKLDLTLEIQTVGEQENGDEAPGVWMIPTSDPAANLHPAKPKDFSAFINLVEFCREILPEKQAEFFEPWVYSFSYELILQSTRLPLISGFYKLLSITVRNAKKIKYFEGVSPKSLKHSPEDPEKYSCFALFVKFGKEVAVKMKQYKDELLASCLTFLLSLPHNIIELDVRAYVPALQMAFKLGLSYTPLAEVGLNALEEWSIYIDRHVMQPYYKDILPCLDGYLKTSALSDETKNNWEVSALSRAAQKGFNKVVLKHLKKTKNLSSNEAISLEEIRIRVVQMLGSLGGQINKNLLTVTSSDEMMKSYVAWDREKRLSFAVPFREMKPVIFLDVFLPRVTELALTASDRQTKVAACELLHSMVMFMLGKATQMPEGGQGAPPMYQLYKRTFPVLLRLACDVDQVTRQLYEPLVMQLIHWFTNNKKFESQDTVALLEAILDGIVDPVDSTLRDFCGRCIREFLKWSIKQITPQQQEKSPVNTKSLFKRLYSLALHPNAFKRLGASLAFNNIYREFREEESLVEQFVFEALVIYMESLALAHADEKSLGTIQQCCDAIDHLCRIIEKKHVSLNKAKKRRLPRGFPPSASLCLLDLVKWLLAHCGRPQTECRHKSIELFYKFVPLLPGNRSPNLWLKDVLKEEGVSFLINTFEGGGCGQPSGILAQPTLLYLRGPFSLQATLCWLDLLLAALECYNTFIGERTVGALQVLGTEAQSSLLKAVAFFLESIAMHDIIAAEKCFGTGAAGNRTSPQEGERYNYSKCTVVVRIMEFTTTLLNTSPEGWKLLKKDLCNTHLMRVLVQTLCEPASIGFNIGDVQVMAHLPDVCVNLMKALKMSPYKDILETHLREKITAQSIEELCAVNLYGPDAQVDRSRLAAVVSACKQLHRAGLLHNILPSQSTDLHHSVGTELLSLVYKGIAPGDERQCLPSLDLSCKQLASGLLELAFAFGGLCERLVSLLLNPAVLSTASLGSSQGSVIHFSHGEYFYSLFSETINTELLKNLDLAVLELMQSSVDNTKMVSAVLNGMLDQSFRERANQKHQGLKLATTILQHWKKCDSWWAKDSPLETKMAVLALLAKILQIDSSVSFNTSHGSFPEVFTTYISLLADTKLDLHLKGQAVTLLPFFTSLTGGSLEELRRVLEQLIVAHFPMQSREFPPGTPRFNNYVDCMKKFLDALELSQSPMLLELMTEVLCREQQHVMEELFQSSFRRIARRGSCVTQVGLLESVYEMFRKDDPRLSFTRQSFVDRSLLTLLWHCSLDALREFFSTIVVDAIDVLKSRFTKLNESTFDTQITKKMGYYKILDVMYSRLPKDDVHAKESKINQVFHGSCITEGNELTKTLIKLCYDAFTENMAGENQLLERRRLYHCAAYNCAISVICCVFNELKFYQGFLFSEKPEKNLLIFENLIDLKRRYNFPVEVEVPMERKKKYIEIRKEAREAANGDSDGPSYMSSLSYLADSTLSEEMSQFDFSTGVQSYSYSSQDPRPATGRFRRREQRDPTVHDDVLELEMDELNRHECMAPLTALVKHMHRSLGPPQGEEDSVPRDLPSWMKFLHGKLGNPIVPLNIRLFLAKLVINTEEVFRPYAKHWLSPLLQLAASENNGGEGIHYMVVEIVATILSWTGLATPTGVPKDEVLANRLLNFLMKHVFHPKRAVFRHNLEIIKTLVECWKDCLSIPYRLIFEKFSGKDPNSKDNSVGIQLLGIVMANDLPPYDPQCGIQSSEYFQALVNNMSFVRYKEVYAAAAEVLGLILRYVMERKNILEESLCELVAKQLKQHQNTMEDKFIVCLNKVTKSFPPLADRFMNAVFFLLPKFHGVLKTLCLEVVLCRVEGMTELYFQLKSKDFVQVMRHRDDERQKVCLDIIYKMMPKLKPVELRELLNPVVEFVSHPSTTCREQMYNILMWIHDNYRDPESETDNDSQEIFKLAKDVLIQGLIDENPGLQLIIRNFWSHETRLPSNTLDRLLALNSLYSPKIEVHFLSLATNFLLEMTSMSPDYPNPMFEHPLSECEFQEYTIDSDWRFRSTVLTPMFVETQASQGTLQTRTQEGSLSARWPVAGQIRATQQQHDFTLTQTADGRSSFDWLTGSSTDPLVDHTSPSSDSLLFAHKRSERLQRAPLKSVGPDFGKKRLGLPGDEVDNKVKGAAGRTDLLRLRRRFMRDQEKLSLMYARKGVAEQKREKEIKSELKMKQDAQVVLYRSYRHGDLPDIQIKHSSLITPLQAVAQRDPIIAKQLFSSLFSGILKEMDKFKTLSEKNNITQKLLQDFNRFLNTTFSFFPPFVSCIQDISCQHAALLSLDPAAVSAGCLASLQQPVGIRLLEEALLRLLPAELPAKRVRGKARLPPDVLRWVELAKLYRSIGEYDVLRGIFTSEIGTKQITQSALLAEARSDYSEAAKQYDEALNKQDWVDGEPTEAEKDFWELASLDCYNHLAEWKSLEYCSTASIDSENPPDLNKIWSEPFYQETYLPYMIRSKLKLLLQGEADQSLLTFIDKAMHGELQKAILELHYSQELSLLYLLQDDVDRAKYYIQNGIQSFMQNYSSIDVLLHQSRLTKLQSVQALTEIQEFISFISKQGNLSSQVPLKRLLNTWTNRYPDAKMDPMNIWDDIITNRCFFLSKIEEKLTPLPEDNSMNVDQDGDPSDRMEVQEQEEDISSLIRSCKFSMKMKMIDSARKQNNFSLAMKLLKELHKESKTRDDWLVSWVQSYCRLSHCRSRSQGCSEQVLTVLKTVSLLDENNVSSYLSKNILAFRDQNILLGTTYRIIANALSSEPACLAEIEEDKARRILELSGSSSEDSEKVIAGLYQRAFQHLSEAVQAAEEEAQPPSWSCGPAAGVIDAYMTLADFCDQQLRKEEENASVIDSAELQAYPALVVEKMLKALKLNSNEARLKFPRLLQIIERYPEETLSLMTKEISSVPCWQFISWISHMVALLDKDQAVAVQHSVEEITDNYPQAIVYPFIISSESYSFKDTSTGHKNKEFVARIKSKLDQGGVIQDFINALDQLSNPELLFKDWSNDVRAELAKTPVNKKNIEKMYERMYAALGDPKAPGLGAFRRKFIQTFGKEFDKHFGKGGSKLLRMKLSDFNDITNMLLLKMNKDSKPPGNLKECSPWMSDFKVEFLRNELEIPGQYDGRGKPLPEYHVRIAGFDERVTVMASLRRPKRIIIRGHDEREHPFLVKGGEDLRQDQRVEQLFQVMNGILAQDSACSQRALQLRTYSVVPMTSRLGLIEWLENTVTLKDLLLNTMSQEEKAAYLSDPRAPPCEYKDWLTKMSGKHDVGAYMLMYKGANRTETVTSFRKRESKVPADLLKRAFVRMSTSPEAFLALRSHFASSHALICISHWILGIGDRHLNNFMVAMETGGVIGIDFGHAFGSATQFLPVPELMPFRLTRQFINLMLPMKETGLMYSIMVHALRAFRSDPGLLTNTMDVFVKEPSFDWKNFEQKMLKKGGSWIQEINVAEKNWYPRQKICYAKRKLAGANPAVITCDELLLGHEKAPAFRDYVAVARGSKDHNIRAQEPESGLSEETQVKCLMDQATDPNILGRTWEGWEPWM

SMILES | IC50 [1] [nM] | Ki [2] [nM]
O=c1cc(-c2cccc(-c3ccc(O)cc3)c2)sc(N2CCOCC2)c1 | 350 | 
O=c1cc(N2CCOCC2)oc2c1ccc1ccccc12 | 230 | 
O=c1cc(N2CCOCC2)oc2c(-c3ccccc3)cccc12 [LY-294002] |  | 6000
